Results: patent publication US20250296959A1, “B7-H3 TARGETING PEPTIDES AND CONSTRUCTS THEREOF” (Mariana Oncology Inc., priority 2024, published 2025)
Starred links: 1 amine or outer side, 2 acyl side, 3 side chain; linkers in the order of their positions; H or OH if unused. Positions of bridges follow the written chain, without caps; N, C: chain ends. Non-standard residues stand in square brackets, D forms with d. Residues, ends and D or L forms follow the SMILES beside them. Groups on a side chain read outwards from the residue. *: point of attachment. Ala(piperidin-4-yl) = O=C([C@H](CC1CCN([*:3])CC1)N[*:1])[*:2]; DOTA = O=C(O)CN1CCN(CC(=O)O)CCN(CC(=O)*)CCN(CC(=O)O)CC1; Trp(5-F) = N[C@@H](Cc1c[nH]c2ccc(F)cc12)C(=O)O; X1 = C[C@@H](c1ccccc1)[C@H](N[*:1])C(=O)[*:2]; PEG8 = NCCOCCOCCOCCOCCOCCOCCOCCOCCC(=O)O; 2Nal = N[C@@H](Cc1ccc2ccccc2c1)C(=O)O; Ala(4-THP) = N[C@@H](CC1CCOCC1)C(=O)O; Ile(3-Me) = CCC(C)(C)[C@H](N)C(=O)O; Val(3-OH) = CC(C)(O)[C@H](N)C(=O)O; pGlu = O=C1CC[C@@H](C(=O)O)N1; PEG4 = NCCOCCOCCOCCOCCC(=O)O; Tle = CC(C)(C)[C@H](N)C(=O)O; hLeu = CC(C)CC[C@H](N)C(=O)O; αMeS = C[C@](N)(CO)C(=O)O; Nle = CCCC[C@H](N)C(=O)O; Nva = CCC[C@H](N)C(=O)O; βAla = NCCC(=O)O

target: T1, human 4lg B7-H3 (Homo sapiens, UniProt Q5ZPR3); test: Affinity determination by surface plasmon resonance (SPR) to 4Ig B7-H3; details: SPR KD—25° C., 4Ig B7-H3; 25° C. flow cell temperature
T1 sequence (Q5ZPR3 29-534): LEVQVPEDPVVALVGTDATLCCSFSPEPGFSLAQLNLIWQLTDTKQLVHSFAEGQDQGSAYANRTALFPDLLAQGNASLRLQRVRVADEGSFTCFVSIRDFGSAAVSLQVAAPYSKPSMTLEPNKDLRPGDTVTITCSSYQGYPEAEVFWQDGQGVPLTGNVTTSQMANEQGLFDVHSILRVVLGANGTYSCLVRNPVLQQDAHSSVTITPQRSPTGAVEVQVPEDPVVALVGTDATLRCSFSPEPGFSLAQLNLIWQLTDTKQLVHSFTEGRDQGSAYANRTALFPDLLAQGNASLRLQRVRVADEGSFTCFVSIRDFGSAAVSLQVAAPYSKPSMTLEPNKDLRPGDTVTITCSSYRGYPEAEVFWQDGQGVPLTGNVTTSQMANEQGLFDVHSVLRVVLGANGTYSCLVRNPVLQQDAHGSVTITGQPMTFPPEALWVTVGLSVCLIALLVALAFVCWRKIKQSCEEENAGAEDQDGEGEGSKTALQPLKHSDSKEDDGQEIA

Compound	Kd [nM]
CC(=O)N[C@@H](CCC(C)C)C(=O)N[C@@H](Cc1ccc(O)cc1)C(=O)N[C@H]1CSSC[C@@H](C(=O)N[C@@H](Cc2ccc3ccccc3c2)C(=O)N[C@@H](Cc2ccccc2)C(=O)N[C@H](C(=O)N[C@H](CCCCNC(=O)CN2CCN(CC(=O)O)CCN(CC(=O)O)CCN(CC(=O)O)CC2)C(=O)O)[C@@H](C)O)NC(=O)[C@H](Cc2ccc(O)cc2)NC(=O)[C@H](C(C)C)NC(=O)[C@H](CC(=O)O)NC(=O)[C@H](Cc2ccc(O)cc2)NC(=O)[C@H](CCCCN)NC(=O)CNC(=O)[C@H](C(C)C)NC1=O [compound 159, Ac-hLeu-Y-C-V-G-K-Y-D-V-Y-C-2Nal-F-Thr-dLys(DOTA)-CONH2] (Ac-[hLeu]YCVGKYDVYC[2Nal]FT[dK](DOTA)-OH; disulfide 3-11)	10 to 100
CCCC[C@H](NC(=O)CCOCCOCCOCCOCCOCCOCCOCCOCCNC(=O)CN1CCN(CC(=O)O)CCN(CC(=O)O)CCN(CC(=O)O)CC1)C(=O)N[C@@H](Cc1ccc(O)cc1)C(=O)N[C@H]1CSSC[C@@H](C(=O)N[C@@H](Cc2c[nH]c3ccccc23)C(=O)N[C@@H](Cc2ccccc2)C(=O)N[C@H](C(N)=O)[C@@H](C)O)NC(=O)[C@H](Cc2ccc(O)cc2)NC(=O)[C@H](C(C)C)NC(=O)[C@H](CC(=O)O)NC(=O)[C@H](Cc2ccc(O)cc2)NC(=O)[C@H](CCCCN)NC(=O)CNC(=O)[C@H](C(C)C)NC1=O [compound 94, DOTA-PEG8-Nle-Y-C-V-G-K-Y-D-V-Y-C-W-F-Thr-CONH2] ({DOTA-PEG8}-[Nle]YCVGKYDVYCWFT-NH2; disulfide 3-11)	10 to 100
CC(=O)N[C@@H](CCC(C)C)C(=O)N[C@@H](Cc1ccc(O)cc1)C(=O)N[C@H]1CSSC[C@@H](C(=O)N[C@@H](Cc2c[nH]c3ccc(F)cc23)C(=O)N[C@@H](Cc2ccccc2)C(=O)N[C@H](C(=O)N[C@H](CCCCNC(=O)CN2CCN(CC(=O)O)CCN(CC(=O)O)CCN(CC(=O)O)CC2)C(N)=O)[C@@H](C)O)NC(=O)[C@H](Cc2ccc(O)cc2)NC(=O)[C@H](C(C)C)NC(=O)[C@H](CC(=O)O)NC(=O)[C@H]([C@@H](C)O)NC(=O)[C@H](CCCCN)NC(=O)CNC(=O)[C@H](C(C)C)NC1=O [compound 198, Ac-hLeu-Y-C-V-G-K-T-D-V-Y-C-5FW-F-Thr-dLys(DOTA)-CONH2] (Ac-[hLeu]YCVGKTDVYC[Trp(5-F)]FT[dK](DOTA)-NH2; disulfide 3-11)	1 to 10

Second part, the compound after the results:

Kd [nM]	Compound
1 to 10	CCC[C@@H]1NC(=O)[C@H](CC(=O)O)NC(=O)[C@H](Cc2ccc(O)cc2)NC(=O)[C@H](CCCCN)NC(=O)CNC(=O)[C@H](C(C)C)NC(=O)[C@@H](NC(=O)[C@H](Cc2ccc(O)cc2)NC(=O)[C@H](CCC(C)C)NC(C)=O)CSSC[C@@H](C(=O)N[C@@H](Cc2c[nH]c3ccc(F)cc23)C(=O)N[C@@H](Cc2ccccc2)C(=O)N[C@H](C(=O)N[C@H](CCCCNC(=O)CN2CCN(CC(=O)O)CCN(CC(=O)O)CCN(CC(=O)O)CC2)C(N)=O)[C@@H](C)O)NC(=O)[C@H](Cc2ccc(O)cc2)NC1=O [compound 185, Ac-hLeu-Y-C-V-G-K-Y-D-Nva-Y-C-5FW-F-Thr-dLys(DOTA)-CONH2] (Ac-[hLeu]YCVGKYD[Nva]YC[Trp(5-F)]FT[dK](DOTA)-NH2; disulfide 3-11)
1 to 10	CC(=O)N[C@@H](CCC(C)C)C(=O)N[C@@H](Cc1ccc(O)cc1)C(=O)N[C@H]1CSSC[C@@H](C(=O)N[C@@H](Cc2c[nH]c3ccc(F)cc23)C(=O)N[C@@H](Cc2ccccc2)C(=O)N[C@@](C)(CO)C(=O)N[C@H](CCCCNC(=O)CN2CCN(CC(=O)O)CCN(CC(=O)O)CCN(CC(=O)O)CC2)C(N)=O)NC(=O)[C@H](Cc2ccc(O)cc2)NC(=O)[C@H](C(C)C)NC(=O)[C@H](CC(=O)O)NC(=O)[C@H](Cc2ccc(O)cc2)NC(=O)[C@H](CCCCN)NC(=O)CNC(=O)[C@H](C(C)C)NC1=O [compound 147, Ac-hLeu-Y-C-V-G-K-Y-D-V-Y-C-5FW-F-aMeSer-dLys(DOTA)-CONH2] (Ac-[hLeu]YCVGKYDVYC[Trp(5-F)]F[αMeS][dK](DOTA)-NH2; disulfide 3-11)
100 to 300	CC(=O)N[C@@H](CCC(C)C)C(=O)N[C@@H](Cc1ccc(O)cc1)C(=O)N[C@H]1CSSC[C@@H](C(=O)N[C@@H](Cc2c[nH]c3ccccc23)C(=O)N[C@@H](Cc2ccccc2)C(=O)N[C@H](C(=O)N[C@H](CCCCNC(=O)CN2CCN(CC(=O)O)CCN(CC(=O)O)CCN(CC(=O)O)CC2)C(N)=O)[C@@H](C)O)NC(=O)[C@H](Cc2ccc(O)cc2)NC(=O)[C@H](C(C)(C)O)NC(=O)[C@H](CC(=O)O)NC(=O)[C@H](Cc2ccc(O)cc2)NC(=O)[C@H](CCCCN)NC(=O)CNC(=O)[C@H](C(C)C)NC1=O [compound 127, Ac-hLeu-Y-C-V-G-K-Y-D-hydroVal-Y-C-W-F-Thr-dLys(DOTA)-CONH2] (Ac-[hLeu]YCVGKYD[Val(3-OH)]YCWFT[dK](DOTA)-NH2; disulfide 3-11)

same assay, conditions: SPR KD—37° C., 4Ig B7-H3; 37° C. flow cell temperature

Kd [nM]	Compound
< 1	CC(C)CC[C@H](NC(=O)[C@@H]1CCC(=O)N1)C(=O)N[C@@H](Cc1ccc(O)cc1)C(=O)N[C@H]1CSSC[C@@H](C(=O)N[C@@H](Cc2c[nH]c3ccc(F)cc23)C(=O)N[C@H](C(=O)N[C@H](C(=O)N[C@H](CCCCNC(=O)CN2CCN(CC(=O)O)CCN(CC(=O)O)CCN(CC(=O)O)CC2)C(=O)O)C(C)(C)O)[C@@H](C)c2ccccc2)NC(=O)[C@H](Cc2ccc(O)cc2)NC(=O)[C@H](C(C)C)NC(=O)[C@H](CC(=O)O)NC(=O)[C@H](CC2CCOCC2)NC(=O)[C@H](CC2CCNCC2)NC(=O)CNC(=O)[C@H](C(C)(C)C)NC1=O [compound 507, Pyroglutamate-hLeu-Y-C-Tbg-G-PipAla-ThpA-D-V-Y-C-5FW-[(2S, 3S)beta-Me-Phe]-hydroxyVal-dLys(DOTA)-COOH] ([pGlu][hLeu]YC[Tle]G[Ala(piperidin-4-yl)][Ala(4-THP)]DVYC[Trp(5-F)][X1][Val(3-OH)][dK](DOTA)-OH; disulfide 4-12)
< 1	CCC(C)(C)[C@@H]1NC(=O)[C@@H](NC(=O)[C@H](Cc2ccc(O)cc2)NC(=O)[C@H](CCC(C)C)NC(C)=O)CSSC[C@@H](C(=O)N[C@@H](Cc2c[nH]c3ccc(F)cc23)C(=O)N[C@@H](Cc2ccccc2)C(=O)N[C@H](C(=O)N[C@H](CCCCNC(=O)CN2CCN(CC(=O)O)CCN(CC(=O)O)CCN(CC(=O)O)CC2)C(=O)O)C(C)(C)O)NC(=O)[C@H](Cc2ccc(O)cc2)NC(=O)[C@H](C(C)C)NC(=O)[C@H](CC(=O)O)NC(=O)[C@H](CC2CCOCC2)NC(=O)[C@H](CC2CCNCC2)NC(=O)CNC1=O [compound 432, Ac-hLeu-Y-C-betaMelle-G-PipAla-ThpA-D-V-Y-C-5FW-F-hydroxyVal-dLys(DOTA)-COOH] (Ac-[hLeu]YC[Ile(3-Me)]G[Ala(piperidin-4-yl)][Ala(4-THP)]DVYC[Trp(5-F)]F[Val(3-OH)][dK](DOTA)-OH; disulfide 3-11)
< 1	CC(=O)N[C@@H](CCC(C)C)C(=O)N[C@@H](Cc1ccc(O)cc1)C(=O)N[C@H]1CSSC[C@@H](C(=O)N[C@@H](Cc2c[nH]c3ccc(F)cc23)C(=O)N[C@H](C(=O)N[C@H](C(=O)NCCC(=O)O)C(C)(C)O)[C@@H](C)c2ccccc2)NC(=O)[C@H](Cc2ccc(O)cc2)NC(=O)[C@H](C(C)C)NC(=O)[C@H](CC(=O)O)NC(=O)[C@H](CC2CCN(C(=O)CCOCCOCCOCCOCCNC(=O)CN3CCN(CC(=O)O)CCN(CC(=O)O)CCN(CC(=O)O)CC3)CC2)NC(=O)[C@H](CC2CCNCC2)NC(=O)CNC(=O)[C@H](C(C)(C)C)NC1=O [compound 511, Ac-hLeu-Y-C-Tbg-G-PipAla-Pip(PEG4-DOTA)Ala-D-V-Y-C-5FW-[(2S, 3S)beta-Me-Phe]-hydroxyVal-betaAla-COOH] (Ac-[hLeu]YC[Tle]G[Ala(piperidin-4-yl)][Ala(piperidin-4-yl)]([PEG4-DOTA])DVYC[Trp(5-F)][X1][Val(3-OH)][βAla]-OH; disulfide 3-11)
